Test results as given in publication PMC10106456 (Communications Biology, 2023).
“And” between values parts separate entries of the source, which are not always exact repeats. Equal values may be shown once. Read-outs that look alike come from different tables or passages of the source.

Experiments:
[1] = system: E. coli DH5αZ1 + pZE24-tet(X7); experiment: Microbroth dilution antibiotic susceptibility test (MIC); assay type: cell-based; details: Escherichia coli, 20 h
Procedure: (§1) For high expression, 1 mM IPTG fully relieves repression by LacI[44] thus only IPTG was used in whole-cell tests. Chemically-competent E. coli DH5αZ1 (Expressys) was transformed with these pZE24 constructs by heat shock. Minimum inhibitory concentrations (MICs) were measured as per Clinical and Laboratory Standards Institute (CLSI) guidelines. Substrates and inhibitors were dissolved in DMSO (20 mg/mL) then diluted to working concentrations in cation-adjusted Mueller-Hinton II broth supplemented with 50 μg/mL kanamycin (Supplementary Data 2). Antibiotic susceptibility testing panels were prepared in 96-well flat-bottom microplates (Corning) by two-fold serial dilution of the antibiotic of interest (Supplementary Data 3). […] Liquid cultures of each strain were grown to exponential phase then diluted to a standard concentration (OD600 = 0.0015, which is equivalent to double ~5 × 10^5 CFU/mL) and inoculated into each panel at a 1:1 ratio. […] Each strain-antibiotic/inhibitor combination was tested in triplicate, along with no-drug and no-cell controls. Inoculated panels were sealed with Breathe-Easy membranes (Sigma-Aldrich) and incubated at 37 °C for 20 h. MICs were scored by absorbance measurements at 600 nm (OD600) using the Synergy H1 microplate reader (Biotek Instruments, Inc).

[2] = system: E. coli DH5αZ1 + pZE24 (empty); experiment: as above; assay type: cell-based; details: Escherichia coli, 20 h, drug alone
Procedure: as §1

Tet(X6) = Tet(X6) (Proteus genomosp. 6, UniProt A0A6I7DAX3); details: for Michaelis-menten nonlinear fit, best-fit Kcat / Michaelis-menten nonlinear fit, best-fit Vmax: supplementary source data; for Michaelis-menten nonlinear fit, best-fit Vmax: Tet(X6) 0.4 µM; for Sigmoidal curve fit, best-fit Kprime / Sigmoidal curve fit, best-fit Vmax / Sigmoidal curve fit, best-fit h / Sigmoidal curve fit, best-fit Khalf: allosteric sigmoidal model, Supplementary Data 1; for Sigmoidal curve fit, best-fit Khalf: [Sub] in μM
Chain of Tet(X6) (A0A6I7DAX3 entry or part of it): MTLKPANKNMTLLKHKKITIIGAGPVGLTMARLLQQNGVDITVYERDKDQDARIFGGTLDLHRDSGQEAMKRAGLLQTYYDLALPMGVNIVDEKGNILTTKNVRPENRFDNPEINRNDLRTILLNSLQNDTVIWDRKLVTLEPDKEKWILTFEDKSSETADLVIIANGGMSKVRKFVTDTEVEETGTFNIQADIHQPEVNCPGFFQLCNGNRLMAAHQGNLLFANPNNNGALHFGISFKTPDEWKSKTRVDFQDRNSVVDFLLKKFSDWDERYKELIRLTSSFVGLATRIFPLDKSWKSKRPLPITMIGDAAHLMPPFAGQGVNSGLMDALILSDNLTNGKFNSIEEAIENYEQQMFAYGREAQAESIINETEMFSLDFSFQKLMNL
Procedure: All experiments were prepared open to air in non-degassed buffer solutions at room temperature. […] Initial enzyme velocities were determined by linear regression using Agilent Cary WinUV Software over the linear range of the reaction (typically between 0 to 1 min), plotted against the concentration of the substrate, and fitted to the Michaelis–Menten or allosteric sigmoidal nonlinear regression equations using GraphPad Prism 6.

[3] = system: E. coli DH5αZ1 + pZE24-tet(X6); experiment: Microbroth dilution antibiotic susceptibility test (MIC); assay type: cell-based; details: Escherichia coli
Procedure: as §1

Tet(X2) = details: surface-localized single point mutation; cited from earlier work
[4] = system: [H][C@@]12Cc3c(N(C)C)cc(CNCC(C)(C)C)c(O)c3C(=O)C1=C(O)[C@]1(O)C(=O)C(C(N)=O)=C(O)[C@@H](N(C)C)[C@]1([H])C2; experiment: purified protein, by the assay type; details: pH 8.5
[5] = system: Cc1c2c(c(O)c3c(O)cccc13)C(=O)[C@]1(O)C(=O)C(C(N)=O)=C(O)[C@@H](N(C)C)[C@@H]1C2; experiment: purified protein, by the assay type; details: other: compound as substrate of Tet(X6), Michaelis-Menten fit, pH 8.5
[6] = system: CN(C)c1cc(NC(=O)CNC(C)(C)C)c(O)c2c1C[C@H]1C[C@H]3[C@H](N(C)C)C(O)=C(C(N)=O)C(=O)[C@@]3(O)C(O)=C1C2=O; experiment: purified protein, by the assay type; details: pH 8.5
[7] = system: CN(C)[C@@H]1C(O)=C(C(N)=O)C(=O)[C@@]2(O)C(O)=C3C(=O)c4c(O)cccc4[C@@](C)(O)[C@H]3C[C@@H]12; experiment: purified protein, by the assay type; details: other: compound as substrate of Tet(X6), Michaelis-Menten fit, pH 8.5
[8] = system: CN(C)[C@@H]1C(O)=C(C(N)=O)C(=O)[C@@]2(O)C(O)=C3C(=O)c4c(O)c(NC(=O)CN5CCCC5)cc(F)c4C[C@H]3C[C@@H]12; experiment: purified protein, by the assay type; details: pH 8.5
[9] = [Sub] 1.96581 μM, trials 1-3, absorbance 400 nm
[10] = [Sub] 3.93162 μM, trials 1-3, absorbance 400 nm
[11] = [Sub] 5.89744 μM, trials 1-3, absorbance 400 nm
[12] = [Sub] 7.86325 μM, trials 1-3, absorbance 400 nm
[13] = [Sub] 9.82906 μM, trials 1-3, absorbance 400 nm
[14] = [Sub] 20.641 μM, trials 1-3, absorbance 400 nm
[15] = [Sub] 30.4701 μM, trials 1-3, absorbance 400 nm
[16] = [Sub] 3.8961 μM, trials 1-3, absorbance 400 nm (440 nm for aTC)
[17] = [Sub] 6.16883 μM, trials 1-3, absorbance 400 nm (440 nm for aTC)
[18] = [Sub] 8.11688 μM, trials 1-3, absorbance 400 nm (440 nm for aTC)
[19] = [Sub] 10.0649 μM, trials 1-3, absorbance 400 nm
[20] = [Sub] 29.8701 μM, trials 1-3, absorbance 400 nm (440 nm for aTC)
[21] = other: compound as substrate of Tet(X6), Michaelis-Menten fit
[22] = other: supplementary source data, [Sub] in μM

## CN(C)[C@@H]1C(O)=C(C(N)=O)C(=O)[C@@]2(O)C(O)=C3C(=O)c4c(O)cccc4[C@@](C)(O)[C@H]3C[C@@H]12 [TET, tetracycline]
[1]
  MIC: 32 µg/mL
[2]
  MIC: 1 µg/mL
Tet(X6); [9]
  Slope (initial velocity of substrate degradation): 0.0375 and 0.04014 and 0.02364
Tet(X6); [10]
  Slope (initial velocity of substrate degradation): 0.04215 and 0.04584 and 0.0387
Tet(X6); [11]
  Slope (initial velocity of substrate degradation): 0.05933 and 0.04704 and 0.05922
Tet(X6); [12]
  Slope (initial velocity of substrate degradation): 0.06246 and 0.0528 and 0.05754
Tet(X6); [13]
  Slope (initial velocity of substrate degradation): 0.05855 and 0.06072 and 0.05694
Tet(X6); [14]
  Slope (initial velocity of substrate degradation): 0.07878 and 0.08328 and 0.07938
Tet(X6); [15]
  Slope (initial velocity of substrate degradation): 0.0879 and 0.09378 and 0.09744
Tet(X6)
  Michaelis-menten nonlinear fit, best-fit Kcat: 0.2636
  Michaelis-menten nonlinear fit, best-fit Vmax: 0.1054 and 0.1047

## C[C@H]1c2cccc(O)c2C(=O)C2=C(O)[C@]3(O)C(=O)C(C(N)=O)=C(O)[C@@H](N(C)C)[C@@H]3[C@@H](O)[C@@H]21 [DOX, doxycycline]
[3]; 20 h
  MIC: 32 µg/mL
[1]
  MIC: 16 µg/mL
[2]
  MIC: 1 µg/mL

## CN(C)c1cc(NC(=O)CNC(C)(C)C)c(O)c2c1C[C@H]1C[C@H]3[C@H](N(C)C)C(O)=C(C(N)=O)C(=O)[C@@]3(O)C(O)=C1C2=O [TIG, tigecycline]
[3]; 20 h
  MIC: 4 µg/mL
[1]
  MIC: 2 µg/mL
[2]
  MIC: 0.5 µg/mL
Tet(X6); [9]
  Slope (initial velocity of substrate degradation): 0.00897 and 0.01087 and 0.008562
Tet(X6); [10]
  Slope (initial velocity of substrate degradation): 0.01529 and 0.0186 and 0.0147
Tet(X6); [11]
  Slope (initial velocity of substrate degradation): 0.02792 and 0.01914 and 0.0183
Tet(X6); [12]
  Slope (initial velocity of substrate degradation): 0.03155 and 0.02526 and 0.02718
Tet(X6); [13]
  Slope (initial velocity of substrate degradation): 0.02741 and 0.02394 and 0.02598
Tet(X6); [14]
  Slope (initial velocity of substrate degradation): 0.03075 and 0.05034 and 0.0363
Tet(X6); [15]
  Slope (initial velocity of substrate degradation): 0.05374 and 0.04632 and 0.03822
Tet(X6)
  Michaelis-menten nonlinear fit, best-fit Kcat: 0.1574
  Michaelis-menten nonlinear fit, best-fit Vmax: 0.06296 and 0.06154

## CN(C)[C@@H]1C(O)=C(C(N)=O)C(=O)[C@@]2(O)C(O)=C3C(=O)c4c(O)ccc(Cl)c4[C@@](C)(O)[C@H]3C[C@@H]12 [CTC, chlortetracycline]
[3]
  MIC: 128 µg/mL
[1]
  MIC: 32 µg/mL
[2]
  MIC: 2 µg/mL

## CN(C)c1cc(CNCC(C)(C)C)c(O)c2c1C[C@H]1C[C@H]3[C@H](N(C)C)C(O)=C(C(N)=O)C(=O)[C@@]3(O)C(O)=C1C2=O [OMA, omadacycline]
[3]; 20 h
  MIC: 64 µg/mL
[1]
  MIC: 16 µg/mL
[2]
  MIC: 2 µg/mL
Tet(X6); [Sub] 1.94805 μM, trials 1-3, absorbance 400 nm (440 nm for aTC)
  Slope (initial velocity of substrate degradation): 0.0061 and 0.0058 and 0.0045
Tet(X6); [16]
  Slope (initial velocity of substrate degradation): 0.0076
Tet(X6); [17]
  Slope (initial velocity of substrate degradation): 0.0203 and 0.0178 and 0.0171
Tet(X6); [18]
  Slope (initial velocity of substrate degradation): 0.0286 and 0.0269 and 0.0241
Tet(X6); [19]
  Slope (initial velocity of substrate degradation): 0.0336 and 0.0293 and 0.0307
Tet(X6); [20]
  Slope (initial velocity of substrate degradation): 0.0474 and 0.044 and 0.0515
Tet(X6)
  Sigmoidal curve fit, best-fit Kprime: 61.85
  Sigmoidal curve fit, best-fit Vmax: 0.05144
  Sigmoidal curve fit, best-fit h: 1.97
  Sigmoidal curve fit, best-fit Khalf: 8.114
  Michaelis-menten nonlinear fit, best-fit Kcat: 0.1969
  Michaelis-menten nonlinear fit, best-fit Vmax: 0.07875

## CN(C)c1ccc(O)c2c1C[C@H]1C[C@H]3[C@H](N(C)C)C(O)=C(C(N)=O)C(=O)[C@@]3(O)C(O)=C1C2=O [minocycline]
Tet(X2)
  reduction of apparent Km by point mutation Thr280Ala in Tet(X2): two-fold

## Tet(X6) (Proteus columbae)
[4]; [21]
  Km: 18 µM
  kcat: 0.00333 ± 0.00033 s⁻¹
  kcat/Km: 183 ± 50 M⁻¹ s⁻¹
[4]; [22]
  Km: 18.4 µM
[5]
  Km: 6 µM
  kcat/Km: 200 ± 50 M⁻¹ s⁻¹
[6]; [21]
  Km: 12 µM
  kcat: 0.00267 ± 0.00033 s⁻¹
  kcat/Km: 217 ± 67 M⁻¹ s⁻¹
[6]; [22]
  Km: 11.8 µM and 11.1 µM
[7]
  kcat: 0.00433 ± 0.00017 s⁻¹
[8]; [21]
  Km: 47 µM
  kcat: 0.0083 ± 0.0017 s⁻¹
  kcat/Km: 183 ± 67 M⁻¹ s⁻¹
[8]; [22]
  Km: 46.6 µM

## CN(C)[C@@H]1C(O)=C(C(N)=O)C(=O)[C@@]2(O)C(O)=C3C(=O)c4c(O)c(NC(=O)CN5CCCC5)cc(F)c4C[C@H]3C[C@@H]12 [ERA, eravacycline]
[3]; 20 h
  MIC: 8 µg/mL
[1]
  MIC: 4 µg/mL
[2]
  MIC: 0.25 µg/mL
Tet(X6); [16]
  Slope (initial velocity of substrate degradation): 0.0062 and 0.0046 and 0.0039
Tet(X6); [17]
  Slope (initial velocity of substrate degradation): 0.0169 and 0.0106 and 0.0133
Tet(X6); [18]
  Slope (initial velocity of substrate degradation): 0.0312 and 0.0317 and 0.0293
Tet(X6); [19]
  Slope (initial velocity of substrate degradation): 0.0442 and 0.0406 and 0.047
Tet(X6); [Sub] 20.1299 μM, trials 1-3, absorbance 400 nm (440 nm for aTC)
  Slope (initial velocity of substrate degradation): 0.0511 and 0.0571 and 0.0722
Tet(X6); [20]
  Slope (initial velocity of substrate degradation): 0.0798 and 0.0764 and 0.0969
Tet(X6); [Sub] 64.9351 μM, trials 1-2, absorbance 400 nm
  Slope (initial velocity of substrate degradation): 0.1162 and 0.1096
Tet(X6)
  Sigmoidal curve fit, best-fit Kprime: 84.21
  Sigmoidal curve fit, best-fit Vmax: 0.1315
  Sigmoidal curve fit, best-fit h: 1.474
  Sigmoidal curve fit, best-fit Khalf: 20.22
  Michaelis-menten nonlinear fit, best-fit Kcat: 0.5027
  Michaelis-menten nonlinear fit, best-fit Vmax: 0.2011
